Molecules are shown by their SMILES. Like-named read-outs stand apart in the source and are kept apart here.

The test system of one data set is gastric mucosa. The data set can be described thus: Ulcerogenic liability (ulcer index). The format is in vivo, albino mice. To be noted: orally, three successive days, 10 mg/kg indomethacin mol equivalent; for Number of animals with ulcer: 6 animals per group; for Ulcer index: sum of the three values. The method, boiled down:
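Albino mice were fasted 18 h before dosing, and controls got saline with a few drops of Tween 80. Gastric mucosa was checked under a 10× lens for lesions and erosions. The ulcer index combines percentage incidence divided by 10, mean ulcers per stomach and mean severity.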

The subject of data set [1] is PHA-stimulated splenocytes. The data set can be described thus: Proliferative response of PHA-stimulated splenocytes (MTT assay). To be noted: PHA 5 μg/ml, 72 hr; compounds at 5 μM (method says 10 μM); ratio of O.D. versus vehicle control. The format is cell-based. A digest of the protocol:
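Readout was MTT absorbance (570 nm, reference 690 nm) after 72 h culture at 37° C. Splenocytes at 1×10^6 cells/well received test compound (10 μM final) alone or plus PHA 5 μg/ml as T-cell mitogen. Values are OD ratios of compound over vehicle control (stimulation index).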
A general note: Tetrazolium dyes change colour on reduction, which living cells bring about.

The subject of data set [2] is lipopolysaccharide-stimulated peritoneal macrophages. The data set can be described thus: Production of nitric oxide by lipopolysaccharide-stimulated peritoneal macrophages (Greiss reagent). Format: cell-based. Set-up: Potency (%): % inhibition of nitric oxide production relative to lipopolysaccharide-stimulated macrophages: concentration or dose not given beside the values. To be noted: LPS-stimulated peritoneal macrophages; for Nitric oxide (nitrite) concentration, μM (average ± SD): 24 h, nitrite by Greiss reagent. A digest of the protocol: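 NO output was quantified as accumulated nitrite, reacting supernatant with Greiss reagent (sulfanilamide/α-naphthylamine) and reading at 532 nm. Beforehand, cells had been incubated 24 h at 37° C. in nitrite-free, 0.1% BSA medium with 0.5–10 ng/ml LPS, with or without catecholamines at […].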

Data set [3] deals with Salmonella typhi ATCC19430. The data set can be described thus: Antimicrobial MIC, agar dilution. The format is cell-based. As to conditions: Salmonella enterica, read-out: Minimum inhibitory concentration (MIC).
Data set [4] relates to HCT116 (colon) carcinoma cell line. As to the kind of experiment: Anti-tumor properties, MTT. The format is cell-based. To be noted: Homo sapiens, HCT-116; read-out: IC50 (μM) HCT116 (colon). A digest of the protocol:
(§1)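 Cells seeded at 10×10^3 per well for 24 h, then exposed to compound in serum-free medium (final up to 100 μM, 0.5% DMSO vehicle) for 72 h in triplicate. Viability by MTT reduction (4 h, SDS solubilised), absorbance 595 nm/ref 620 nm; IC50 from survival curves.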

Data set [5] concerns HepG2 (hepatocellular) carcinoma cell line. As to the kind of experiment: Anti-tumor properties, MTT. The format is cell-based. To be noted: Homo sapiens, HepG2; read-out: IC50 (μM) HepG2 (liver). A digest of the protocol:
as §1

The subject of data set [6] is MCF7 (breast) carcinoma cell line. As to the kind of experiment: Anti-tumor properties, MTT. Format: cell-based. As to conditions: Homo sapiens, MCF7; read-out: IC50 (μM) MCF7 (breast). A digest of the protocol:
as §1

Data set [7] has as its system A-549 (lung) carcinoma cell line. As to the kind of experiment: Anti-tumor properties, MTT. Format: cell-based. As to conditions: Homo sapiens, A549.
For data set [8], the system named is PC3 (prostate) carcinoma cell line. As to the kind of experiment: Anti-tumor properties, MTT. The format is cell-based. To be noted: Homo sapiens.
For data set [9], the system named is Staphylococcus aureus ATCC25923. As to the kind of experiment: Antimicrobial MIC, agar dilution. A general note: In agar dilution the substance is mixed into plates at graded concentrations.
Data set [10] has as its system Streptococcus pyogenes ATCC19615. The data set can be described thus: Antimicrobial MIC, agar dilution.
Data set [11] has as its system Pseudomonas aeruginosa ATCC27853. As to the kind of experiment: Antimicrobial MIC, agar dilution.
Data set [12] has as its system Candida albicans (local isolate). As to the kind of experiment: Antimicrobial MIC, agar dilution. To be noted: Candida albicans, read-out: Minimum inhibitory concentration (MIC).
[13] abbreviates: ATCC25923, 18 h, read-out: Minimum inhibitory concentration (MIC).
Where [14] appears, read: ATCC25923, read-out: Minimum inhibitory concentration (MIC).
[15] abbreviates: ATCC19615, 18 h, read-out: Minimum inhibitory concentration (MIC).
The mark [16] stands for this setting: ATCC19615, read-out: Minimum inhibitory concentration (MIC).
The mark [17] stands for this setting: ATCC27853, 18 h, read-out: Minimum inhibitory concentration (MIC).
[18] abbreviates: ATCC27853, read-out: Minimum inhibitory concentration (MIC).

With `COc1cc(/C=C/C(=O)CC(=O)/C=C/c2ccc(OC(=O)[C@@H](CCSC)NC(=O)OCc3ccccc3)c(OC)c2)ccc1OC(=O)[C@@H](CCSC)NC(=O)OCc1ccccc1` [Z-D-Met-Cur, ((1E,6E)-3,5-dioxohepta-1,6-diene-1,7-diyl)bis(2-methoxy-4,1-phenylene) (2R,2′R)-bis(2-(((benzyloxy)carbonyl)amino)-4-(methylthio)butanoate)], in the data set on gastric mucosa, the “% Incidence of ulcer divided by 10” value is reported as 0. For the same compound, the “Average of ulcer number” value in the data set with gastric mucosa was 0. Besides, the “Average severity of ulcer” value in the data set with gastric mucosa turned out to be 0. Moreover, the “Number of animals with ulcer” value in the data set on gastric mucosa is reported as 0/6. Besides, the Ulcer index in the data set with gastric mucosa turned out to be 0. The “Stimulation Index (average ± SD)” value in [1] amounted to 1.37 ± 0.29. Besides, the “Potency (%): % inhibition of nitric oxide production relative to lipopolysaccharide-stimulated macrophages” value in [2] was found to be 40.84%. Further, the “Nitric oxide (nitrite) concentration, μM (average ± SD)” value (shortened to “Nitric oxide … (average ± SD)”) in data set [2] came to 16.16 ± 1.90 µM. For the same compound, the MIC in data set [3] (18 h) stood at 0.5 µg/mL; in data set [3] it was 0.556 µM; in data set [9] (setting [13]), 0.125 µg/mL; in data set [9] (setting [14]), 0.139 µM; in [10] (setting [15]), 0.125 µg/mL; in data set [10] (setting [16]), 0.139 µM. In addition, the MIC in data set [11] (setting [17]) was determined as 1 µg/mL; in data set [11] (setting [18]) it was 1.11 µM; in data set [12] (18 h), 0.125 µg/mL; in [12], 0.139 µM. Moreover, the IC50 in data set [4], in data set [5], in data set [6], in data set [7] and in data set [8] was above 100 µM in each case.
For the compound `COc1cc(/C=C/C(=O)CC(=O)/C=C/c2ccc(OC(=O)[C@H](CCSC)NC(=O)OC(C)(C)C)c(OC)c2)ccc1OC(=O)[C@H](CCSC)NC(=O)OC(C)(C)C` [Boc-L-Met-Cur, ((1E,6E)-3,5-dioxohepta-1,6-diene-1,7-diyl)bis(2-methoxy-4,1-phenylene) (2S,2′S)-bis(2-((tert-butoxycarbonyl)amino)-4-(methylthio)butanoate)], the “% Incidence of ulcer divided by 10” value in the data set on gastric mucosa turned out to be 0. The “Average of ulcer number” value in the data set with gastric mucosa stood at 0. In addition, the “Average severity of ulcer” value with gastric mucosa is on record as 0. The “Number of animals with ulcer” value in the data set with gastric mucosa is on record as 0/6. Further, in the data set on gastric mucosa, the Ulcer index is on record as 0. In addition, in data set [1], the “Stimulation Index (average ± SD)” value is 1.37 ± 0.10. In [2], the “Potency (%): % inhibition of nitric oxide production relative to lipopolysaccharide-stimulated macrophages” value is on record as 40.84%. For the same compound, the “Nitric oxide … (average ± SD)” value in [2] was found to be 16.16 ± 0.64 µM. Also, the MIC in data set [3] (18 h) came out at 2 µg/mL; in data set [3], 2.41 µM; in [9] (setting [13]), 2 µg/mL; in [9] (setting [14]) it was 2.41 µM; in data set [10] (setting [15]), 2 µg/mL; in data set [10] (setting [16]) it was 2.41 µM. Besides, the MIC stood at 1 µg/mL in data set [11] (setting [17]), 1.2 µM in data set [11] (setting [18]), 1 µg/mL in data set [12] (18 h) and 1.2 µM in data set [12]. For the same compound, the IC50 in data set [4] is above 100 µM; in data set [5], above 100 µM; in data set [6], 36.3 µM; in data set [7], above 100 µM; in data set [8], above 100 µM.
Regarding `COc1cc(/C=C/C(=O)CC(=O)/C=C/c2ccc(OC(=O)[C@@H](N)Cc3ccccc3)c(OC)c2)ccc1OC(=O)[C@@H](N)Cc1ccccc1.Cl.Cl` [HCl-L-Phe-Cur, (2S,2′S)-1,1′-((((1E,6E)-3,5-dioxohepta-1,6-diene-1,7-diyl)bis(2-methoxy-4,1-phenylene))bis(oxy))bis(1-oxo-3-phenylpropan-2-aminium) chloride], in data set [1], the “Stimulation Index (average ± SD)” value was determined as 1.41 ± 0.31. The “Potency (%): % inhibition of nitric oxide production relative to lipopolysaccharide-stimulated macrophages” value in [2] is 39.74%. Further, the “Nitric oxide … (average ± SD)” value in [2] was 16.46 ± 2.05 µM. Besides, the MIC in data set [3] (18 h) is 0.125 µg/mL; in data set [3], 0.17 µM; in data set [9] (setting [13]), 0.25 µg/mL; in data set [9] (setting [14]), 0.34 µM; in data set [10] (setting [15]), 0.5 µg/mL; in [10] (setting [16]) it was 0.68 µM. Also, the MIC in [11] (setting [17]) was found to be 0.5 µg/mL; in data set [11] (setting [18]), 0.68 µM; in [12] (18 h) it was 0.5 µg/mL; in data set [12], 0.68 µM. For the same compound, the IC50 came out at 65.6 µM in data set [4]; 56.2 µM in data set [5]; 11.5 µM in [6]; 33.5 µM in [7]; 74.4 µM in [8].

One may read the IC50 as the concentration at which inhibition is half-maximal.

Source of the values: patent US10660967B2, “Curcumin conjugates and methods of use thereof” (priority 2016, dated 2020).
